Reference: US20140061616A1, “ORGANIC SEMICONDUCTOR MATERIAL, COATING LIQUID CONTAINING THE MATERIAL, AND ORGANIC THIN FILM TRANSISTOR” (IDEMITSU KOSAN CO., LTD., priority 2010, published 2014)

Key:
[1] = Evaluation of solubility: temperature of toluene required to dissolve the compound at 0.4 mass %; format: physicochemical; conditions: concentration of 0.4 mass %
[2] = Storage stability of organic semiconductor material: carrier mobility after storage in air; format: physicochemical; conditions: deposited transistor stored for 9 days in air
Experimental: An organic thin film transistor was obtained in the same manner as in Example 17, except that pentacene (see the following formula) was used as the material for forming the organic semiconductor layer instead of the compound (A-3).
The field-effect mobility μ of holes in the organic thin film transistor was calculated in the same manner as in Example 17, and found to be […]. The carrier mobility calculated after storing the organic thin film transistor for 9 days in air was […].

Row | SMILES | Dissolution temperature (° C.) in toluene [1] | Dissolution temperature (° C.) in toluene ([1]; listed as comparative compound (2)) | carrier mobility after storage [2] | deterioration in carrier mobility on storage [2]
1 | c1ccc2c(c1)sc1c2ccc2c1ccc1c3ccccc3sc12 [Comparative compound (2)] | Insoluble | not sufficiently dissolved | – | –
2 | CCCCCc1ccc2c(c1)sc1c2ccc2c1ccc1c3ccc(CCCCC)cc3sc12 [Compound A-3] | 80 °C | – | 1.1 cm^2/Vs | a deterioration in carrier mobility was not observed
3 | CCCCCCCCCCCCc1ccc2c(c1)sc1c2ccc2c1ccc1c3ccc(CCCCCCCCCCCC)cc3sc12 [Comparative compound (1)] | 90 °C | – | – | –
4 | c1ccc2cc3cc4cc5ccccc5cc4cc3cc2c1 [pentacene] | – | – | 1.3×10^3 cm^2/Vs | –
